Experimental data as given in patent US9308210B2, “Method for modulating canonical Wnt pathway using folate and inositol” (University of South Florida, priority 2009, dated 2016).

Experiments:
[1] = tested on: avian embryos
[2] = tested on: C57BL/6 mouse embryos; details: in vivo
[3] = tested on: Hex and Isl-1 expression; assay: In situ hybridization of Hex and Isl-1 in avian embryos after EtOH exposure with or without FA; format: in vivo, avian (chick); details: 30% EtOH; HH stage 4; 8 hour incubation
[4] = tested on: C57BL/6 mouse embryos; assay: Morphometric parameters and resorptions of E15.5 mouse embryos with ethanol exposure and FA diet; format: in vivo
Text: The C57Bl/6 mouse strain (Jackson Laboratories) was used.

[5] = tested on: HTR-8/SVneo cells; assay: In vitro wound assay of human trophoblast cell migration; format: cell-based; details: HCy exposure experiments; scrape wound
Text: In previous studies by the inventors analyzing the effects of lithium and the metabolite homocysteine (HCy) on early heart development, the results were similar. Both factors inhibited Wnt/β-catenin-mediated gene expression during induction stages of cardiogenesis. […] Folate protects the embryo from these adverse effects (Han et al., 2009). It was also noted that normal placental development was adversely affected by Li and HCy. A human trophoblast cell line, HTR-8/SVneo cells, was used to determine whether Li or HCy affect the migration of these cells in vitro and whether FA or FA/myo-inositol would protect the cells from adverse effects of the two cardiac teratogens. HCy exposure experiments were conducted. […] The wound edges are depicted by a white line in B. In panel A, it can be seen that the wound area is smaller. Administration of a combination of FA/myo-inositol, FA alone or myo-inositol alone, enhanced the expression of NMHC-IIB and FN to facilitate cell migration.

[6] = tested on: chick embryos; assay: Early embryonic chick culture: heart development (MF20) after HCy, Li or Wnt3A exposure, FA/inositol rescue; format: in vivo, chick (Gallus gallus)
Description: Pathogen-free White Leghorn chick (Gallus gallus; Charles River, Mass.) and quail (Coturnix coturnix japonica; Strickland Farms, Ga.) embryos were used to analyze the effects of HCy on early embryogenesis. The early processes of heart development are well conserved among vertebrates and the avian model allows for more precise timing of exposure in early embryos. The incubation methodology using agarose-albumin has been described previously (Darnell and Schoenwolf, 2000). Briefly, the experimental paradigm involved exposing specific early stages of chick embryos, at HH stages 4 to 7 (Hamburger and Hamilton, 1951), to different concentrations of HCy (L-homocysteine thiolactone hydrochloride, Sigma) made up in physiological saline. Final concentrations of HCy included 30 μM, 50 μM, 75 μM and 100 μM. The minimal teratogenic dose was determined empirically to be 50 μM. This fit within the concentration range of 30 μM to 300 μM used by others that induced heart defects at later stages of development (Boot et al., 2004). Control embryos were incubated using the vehicle, physiological saline, in the agarose-albumin medium. Control and experimental cultures were incubated on the agarose-albumin plates for either 8 or 24 hours.
Carrier-free, recombinant mouse Wnt3A was purchased from R&D Systems (Minneapolis, Minn.). Wnt3A concentrations were empirically tested to find those that would induce cardiac defects but maintain embryonic viability. Wnt3A was tested at concentrations of 2 ng, 10 ng, 20 ng, 50 ng and 100 ng per ml. Concentrations of 2 ng/ml and 10 ng/ml were both effective in inducing cardiac defects. Both Wnt3A concentrations were used in the FA rescue experiments, as described. For the FA rescue experiments, folate (folic acid, Sigma-Aldrich) was added at a concentration of 2 μg, 5 μg or 10 μg per ml. […] For the experiments using inositol (myo-inositol, Sigma) supplementation, a concentration of 50 mg/ml was used.
The main embryonic defects related to the timing of embryonic exposure; the regions that were primarily affected related to an anterior-to posterior (AP) wave of development along this embryonic axis. The exposure effects ranged from early effects (e.g. no cardiac tissue, heart development occurring anterior to neural tissue, cardiabifida) to later effects, such as wide hearts and left looping (Table 1). The cardiac phenotypes observed with early HCy exposure were similar, although not identical, to those obtained from previous studies of Li exposure on avian heart development (Manisastry et al., 2006). The Wnt/β-catenin modulated genes Hex and Isl1 in the chick embryo also were similarly repressed with HCy, as with Li in the chick cardiogenic region. […] Investigation of regulatory gene activity in chick embryos indicates Li, HCy and Wnt3A suppress Wnt-modulated genes Hex and Islet-1 in the heart fields.
To define the effective dose of Wnt3A needed to induce cardiac dysmorphogenesis, Wnt3A was tested at concentrations of 2 ng, 10 ng, 20 ng, 50 ng, and 100 ng per ml. The minimal effective doses of Wnt3A that induced cardiac and neural anomalies were 2 ng/ml and 10 ng/ml, respectively. Using these concentrations, the inventors analyzed whether FA supplementation of media at 10^3-fold higher concentrations, that is 2 μg/ml or 10 μg/ml, would provide protection against the augmentation of canonical Wnt3A signaling.

[7] = tested on: Hex and Islet-1 (Isl1) gene expression; assay: In situ hybridization of Hex and Isl1 in avian heart fields after Li, HCy or Wnt3A with or without FA; format: in vivo, chick; details: 8 hours of exposure; HH stages 3+/4
Description: In situ hybridizations on control and experimentally manipulated chick embryos were carried out using digoxigenin-labeled riboprobes with alkaline phosphatase detection (Linask et al., 2001). Images of whole-mounted chick embryos were taken with a Nikon DS-L2 camera unit. Probes for chick Hex were provided by Parker Antin, University of Arizona and probes for chick Islet-1 (Isl1) were provided by Thomas Jessell, Columbia University, NY.
Chick embryos (HH stages 3+/4) were incubated on agarose albumin supplemented with HCy (50 μM). Instead of giving a single injection in ovo, embryos were exposed to HCy for 8 hours in order to define the effect on early cardiac gene expression. Another group of embryos were exposed to HCy for 24 hours at which time the effects on gene expression were determined. To analyze the effects during the looping stages, incubation was stopped after between 22 and 24 hours. After the 8-hour incubation, Li and HCy suppressed Hex and Isl1 expression in the cardiogenic crescent (FIG. 5).
The inventors next analyzed whether FA rescues the downregulation of Hex and Isl1. Chick embryos were exposed to Li, HCy or Wnt3A, as above, with and without 10 μg/ml of FA; the experiments were terminated after either an 8-hour or 24-hour exposure period, at which time in situ hybridizations for gene expression were performed. After 8 hours of exposure, Li, HCy and Wnt3A all suppressed Hex (FIGS. 9D, G, J) and Isl1 (FIGS. 10D, G, J) compared with the control embryonic expression patterns (FIG. 9A; FIG. 10A). […] Thus, FA supplementation suppressed the potentiation of the inhibitory Wnt signaling, allowing for normal induction of Hex and Isl1 gene expression.

[8] = 30% EtOH 2.9 g/Kg twice i.p. on E6.75
[9] = 30% EtOH 3.5 g/Kg once i.p. on E6.75
[10] = HH stage 3 +/4, HCy 50 μM, Li 50 μM, FA 10 μM, inositol 280 mM

CCO [EtOH, ethanol]
embryos with cardiac valve anomalies ([1]; 25% and 30% EtOH, stage 4): 68%
embryos with normal heart development ([1]; 25% and 30% EtOH, stage 4, FA (10 mg/ml) concurrently, in vitro and in ovo): 32%
morphological defects ([1]; EtOH in vitro at HH stage 4): delayed growth and severe cardiac malformations
effects of 10% EtOH in ovo ([1]; quail eggs stage 4, microinjected into airspace): no adverse effects
teratogenic EtOH dose ([1]; stage 4 avian embryos): 25-30%
DAPI [2]: 1.73
DVPI [2]: 1.21
E/A Ratio [2]: 0.29
HR [2]: 205 bpm
ICT % [2]: 10.09%
IRT % [2]: 14.93%
MPI [2]: 0.62
OF [2]: 26.37 cm/s
RR [2]: 293 ms
UAPI [2]: 1.75
abnormalities after one i.p. injection of 3.5 g/kg ([2]; ip): did not produce any abnormalities
outcome after one i.p. injection of 4.5 g/kg ([2]; ip): cardiac abnormalities, but the pregnant mouse appeared sickly
Hex and Isl-1 expression in the heart fields [3]: suppressed
Body Weight [4, 8]: 0.37 g
CRL [4, 8]: 12.63 min
Placenta Weight [4, 8]: 0.10 g
Body Weight [4, 9]: 0.35 g
CRL [4, 9]: 11.40 min
Placenta Weight [4, 9]: 0.09 g

O[C@H]1[C@H](O)[C@@H](O)[C@H](O)[C@@H](O)[C@H]1O [Inositol, myo-inositol]
expression of NMHC-IIB and FN [5]: enhanced
% Normal Hearts [6, 10]: 60%
Abnormal (number of embryos) [6, 10]: 2
Normal (number of embryos) [6, 10]: 3
% Normal Hearts ([6]; HH stage 3 +/4, HCy 50 μM, Li 50 μM, FA 10 μM, inositol 280 mM, listed as Inositol only): 60%

Wnt3A
embryos with normal hearts / normal heart development ([6]; Wnt3A exposure at HH stages 3+/4, Wnt 2 ng, FA 10 μg): 18%
minimal effective dose that induced cardiac anomalies ([6]; in vivo): 2 ng/mL
minimal effective dose that induced neural anomalies ([6]; in vivo): 10 ng/mL
Hex and Isl1 expression in the cardiogenic crescent [7]: suppressed
